Laboratory results from patent US20240197715A1, “PHARMACEUTICAL COMBINATIONS AND USES THEREOF” (NOVARTIS AG, priority 2022, published 2024).

Columns and labels:
[1] = system: SW620 (CCL-227, ATCC) MSS colorectal carcinoma xenografts; assay: SW620 MSS CRC xenograft efficacy in nude mice; format: in vivo; details: for effect on tumor growth of parental SW620 tumors: irinotecan 15 mg/kg i.v. once weekly, Compound A 120 mg/kg p.o. daily
Procedure: SW620 (CCL-227, ATCC) [MSS colorectal carcinoma (CRC)] was cultured in DMEM (#1-26F01-I, AMIMED) supplemented with 10% FCS (#2-0-1F30-I, BioConcept), 4 mM L-glutamine (#5-10K50-H, BioConcept) and 1 mM Sodium pyruvate (#5-60F00-H, BioConcept). Cells were passaged by washing first with Dulbecco's PBS without Ca^2+/Mg^2+ (#3-05F29-1, AMIMED), trypsinising cells with Trypsin 0.05% in PBS with EDTA (#5-51F00-H, AMIMED), centrifuging in the respective culture media, and splitting cells into fresh media at a ratio of 1:8, 2 times per week.
Athymic nude mice (Charles River, Germany) were allowed to adapt for 7 days upon arrival at the animal facility and housed in a pathogen-controlled environment (5 mice/Type III cage) with access to food and water ad libitum. Animals were identified with transponders. Studies described in this report were performed according to procedures covered by a permit number issued by the Kantonales Veterinäramt Basel-Stadt.
Subcutaneous tumors were initiated by injecting 5.0×10^6 SW620 tumor cells in 50% Matrigel (#354234, Corning) in HBSS (#H6648, SIGMA) in the right flank of nude mice. The efficacy experiment (n=6), started 11 days post-cell injection.
Compound A and Temozolomide were made-up fresh on a weekly basis and kept at 4° C. and protected from light. Compound A was dissolved in 20% Hydroxypropyl-ß-Cyclodextrine (HP-ß-CD, #H107-100G, SIGMA) in UltraPure™ Water (#10977-035, Invitrogen) and administered p.o. at 10 ml/kg. Temozolomide was dissolved in 30% PEG-400 (#202398-500G, SIGMA) and 70% Dulbecco's PBS without Ca^2+/Mg^2+ (#3-05F29-1, AMIMED) and administered p.o. at 10 mL/kg on 5 consecutive days within a 21 days cycle. Irinotecan was made-up fresh for each treatment once a week by diluting with NaCl 0.9% (#3-06S00-I, BioConcept). The solution was administered i.v. at 5 mL/kg.
(§1) Tumor volumes (TVol), determined from caliper measurements (using the formula I*w2*π/6) were measured two times per week. Tumor response was quantified by the change in tumor volume (endpoint minus starting value in mm^3) as the T/C (the ratio between the tumor volume in the treated group and in the untreated control group). In the case of a tumor regression or to assess the percentage of change in TVol, the tumor response was quantified by the percentage of regression of the starting TVol. The body-weight (BW) of the animal was measured three times per week allowing calculation at any particular time-point relative to the day of initiation of treatment (day 0) of the percentage change in BW (4% BW).
At day 43 post-cell injection, irinotecan was administered intravenously at 15 mg/kg once weekly for 7 weeks in combination with Compound A, also administered from day 43, orally at 120 mg/kg daily for 52 days.
Starting 11 days post-cell injection, temozolomide was administered orally on a 21 day cycle of 5 consecutive days at 100 mg/kg on 5 consecutive days (day 11 to day 15 and day 32 to day 36). At day 43 post-cell injection, to the first group irinotecan was administered intravenously at 15 mg/kg once weekly for 6 weeks, and to the second group irinotecan was administered intravenously at 15 mg/kg once weekly for 6 weeks in combination with Compound A, also administered from day 43, orally at 120 mg/kg daily for 46 days.

[2] = system: T84 (CCL-248, ATCC) MSS colorectal carcinoma xenografts; assay: T84 MSS CRC xenograft efficacy in nude mice; format: in vivo; details: Compound A 120 mg/kg p.o.; irinotecan 5 mg/kg i.v. once a week
Procedure: T84 (CCL-248, ATCC) is MSS colorectal carcinoma (CRC). It was cultured in DMEM (#1-26F01-I, AMIMED) supplemented with 10% FCS (#2-0-1F30-I, BioConcept), 4 mM L-glutamine (#5-10K50-H, BioConcept) and 1 mM Sodium pyruvate (#5-60F00-H, BioConcept). Cells were passaged by washing first with Dulbecco's PBS without Ca^2+/Mg^2+ (#3-05F29-1, AMIMED), trypsinising cells with Trypsin 0.05% in PBS with EDTA (#5-51F00-H, AMIMED), centrifuging in the respective culture media, and splitting cells into fresh media at a ratio of 1:8, 2 times per week.
Athymic nude mice (Charles River, Germany) were allowed to adapt for 7 days upon arrival at the animal facility and housed in a pathogen-controlled environment (5 mice/Type III cage) with access to food and water ad libitum. […]
as §1, with “I*w2*TT/6)” for “I*w2*π/6)”, “T/C.” for “T/C (the ratio between the tumor volume in the treated group and in the untreated control group).”

| Structure (SMILES) | outcome after stopping temozolomide and irinotecan on day 129 ([1]; SW620, all treatments stopped vs still treated with compound A only) | effect on tumor growth of parental SW620 tumors [1] | effect on tumor growth of parental T84 tumors [2] | relapse of TMZ pre-treated SW620 tumors ([1]; after 2 cycles TMZ, treatment from day 43) |
| --- | --- | --- | --- | --- |
| CCc1c(N2CCN(C(=O)c3ncnc(C)c3O)CC2)c(=O)n2nc(C3=CCOCC3)nc2n1CC(=O)Nc1ccc(C(F)(F)F)cc1Cl [Compound A] | remained below 50% tumor regression | delay of the tumor growth | no effect |  |
| CCc1c2c(nc3ccc(OC(=O)N4CCC(N5CCCCC5)CC4)cc13)-c1cc3c(c(=O)n1C2)COC(=O)[C@]3(O)CC [irinotecan] |  | delay of the tumor growth | delay of the tumor growth | the tumors relapsed |
